{
  "source": "paper PMC12598805",
  "about": "“Crystal Structure–Activity Relationship of Some MeO Phenylacrylonitriles: Dual Antimicrobial–Cytotoxic Effects and in Silico Perspectives” (ChemistryOpen, 2025)",
  "type_in_all_cases": "cell-based",
  "key": {"[1]": {"system": "Escherichia coli (ATCC 25922)", "test": "Broth microdilution MIC", "details": "ATCC25922, E.coli", "method": "Escherichia coli (ATCC 25922) […]\nATCC: American Type Culture Collection; NRRL: Northern Regional Research Laboratory The compounds 2(a-c) obtained could only be completely solubilised with dimethyl sulphoxide (DMSO) and the highest possible stock solutions of 50 mg.mL-1 were prepared. […]\n3.1. Determination of Minimum Inhibition Concentration (MIC)\nThe minimum inhibition concentration (MIC) values of the compounds 2(a-c) against the test bacteria used in the study were determined according to the broth microdilution method.[1-2] MHB or SDB was used as test medium and bacterial and yeast suspensions were prepared at 0.5 Mc Farland concentration for each test bacteria. Double layer serial dilutions were prepared in \"U\" type 96-well microtiter plates. Medium+bacteria suspensions containing only medium in the first row, medium+bacteria in the second row and the final concentrations of the synthesised substances in the other rows between 25 mg.mL-1 and […] were added to the wells with a final volume of 200\nμL. Ampicillin, Kanamycin and Amphotericin B standard antibiotics were used as positive controls.\nBacteria were incubated at 37±0.1 °C and C. albicans at 30±0.1 °C for 24-48 hours and the lowest concentration without growth was determined as MIC. Tests were performed in two parallel runs and mean values were given as a result. […]"}, "[2]": {"system": "human breast carcinoma (MCF‐7) cells", "test": "Cytotoxicity, CCK8 cell viability", "details": "for IC50: Homo sapiens, MCF7, read-out: Cytotoxic activity IC50", "description": "(§1) We investigated the cytotoxic effects of acrylonitrile derivatives 2(a–c) on human lung carcinoma (A549, CCL‐185) cells purchased from American Culture Collection and human breast carcinoma (MCF‐7) cells purchased from Republic of Turkey Ministry of Agriculture and Forestry Şap Institute, (HUKUK, 00092502), In addition, mouse fibroblast cells (L929, CCL‐1) purchased from American Culture Collection were used to observe the effects of the compounds on healthy cells. In 25 T Flask, A549 cells were grown in dulbecco's modified eagle's medium, MCF‐7, and L929 cells were grown in eagle's minimum essential medium (EMEM), 10% fetal bovine serum and 1% Penicillin‐Streptomycin at 37 °C in a 5% CO2 and 100% humidified incubator. Cell proliferation was checked every day. Cells were taken into the experiment when the cell density reached 70% to 80%. (See Supporting Information for experimental preparation of biological studies).\n(§2) The compounds 2a, 2b, and 2c were dissolved in 99.8% Dimethyl sulfoxide (DMSO) respectively, as\n(§3) 10 mM main stock. To prepare the doses of acrylonitrile compounds used in the experiment to be\n(§4) applied to the cells, five different concentrations of 31.25; 62.5; 125; 250 and 500 μM were prepared\n(§5) by diluting the main stock solutions (10 mM) with the medium selected according to the cells. 5-\n(§6) Fluorouracil (5-FU) was selected as a positive control in the study. After the 5-FU main stock solution\n(§7) was dissolved with DMSO to be 10 mM, the concentrations to be used were diluted with the selected\n(§8) media and made ready for the experimental plan. The concentrations used for 5-FU were prepared in\n(§9) the same doses used for acrylonitrile derivatives. For the negative control group, groups containing\n(§10) only media and no substance were used. Prepared acrylonitrile compounds and 5-FU concentrations\n(§11) were added to the wells in three replicates for each dose, and their effects on cell viability at 24 and 48\n(§12) Trypan blue solution (Gibco, 1525061) was used to distinguish between living and dead cells in the\n(§13) study. Trypan blue passes uncontrollably through the membrane of dead cells that have lost their cell\n(§14) membrane integrity and stains the cell blue. Living cells, on the other hand, are not stained because\n(§15) Live cell counts were performed using trypan blue using a\n(§16) cell counter (Logos Luna II).\n(§17) In order to detach the cells adhering to the flasks from the bottom, 500 μL of 0.25% Trypsin-EDTA\n(§18) (Gibco, 15400054) solution was added and treated for five minutes.\n(§19) detach from the bottom under an inverted microscope (Zeiss Primovert, Germany), medium containing\n(§20) 10% FBS was added. After centrifugation at 300 g for 5 minutes and discarding the medium, 1 mL of\n(§21) medium was added and the cells were seeded into 96-well culture dishes as 1x10^4 cells in 100 μL per\n(§22) Cell Counting Kit 8 (CCK8; Medchem, 146436) was used to determine cell viability. After adding 20 μL\n(§23) of CCK8 solution to each well in the dark, 96-well culture dishes were wrapped with aluminum foil and\n(§24) kept in a CO2 incubator at 37 °C for 2 hr. Then, it was automatically read with a microplate reader\n(§25) (Chromate) at 450 and 630 nm wavelengths. The following formula was used to determine cell\n(§26) % Viability = (Sample Well−Blank) (Negative Control−Blank)×100 (1)\n(§27) The half-maximal inhibitory concentration (IC50) was calculated as 50% cell death causing dose\n(§28) compared to the control group. All data are given as the mean percent fraction of control ± SEM.\n(§29) Statistical analysis was done by one-way analysis of variance (ANOVA), followed by Tukey’s multiple\n(§30) comparison tests. IBM SPSS Statistics 22 was used to utilize statistical analysis. […]"}, "[3]": {"system": "human lung carcinoma (A549, CCL‐185) cells", "test": "Cytotoxicity, CCK8 cell viability", "details": "for suppressive effect on cell proliferation / viability: 31.25 to 500 μM; for cell suppressive effect: concentrations of 31.25, 62.5, 125 and 250 μM; for IC50: Homo sapiens, read-out: Cytotoxic activity IC50", "description": "as §1, §2, §3, §4, §5, §6, §7, §8, §9, §10, §11, §12, §13, §14, §15, §16, §17, §18, §19, §20, §21, §22, §23, §24, §25, §26, §27, §28, §29, §30"}},
  "note": "Like-named read-outs stand apart in the source and are kept apart here.",
  "data": [
    {"smiles": "COc1ccc(C=C(C#N)c2ccccc2)cc1", "note": "[2a, 3‐(4‐methoxyphenyl)‐2‐phenylacrylonitrile]", "values": [
      {"measurement": "MIC", "setting": "[1]", "result": 2.5, "unit": "mg/mL"},
      {"measurement": "IC50", "setting": "[2]; MCF‐7, 24 h", "result": 131, "unit": "µM"},
      {"measurement": "IC50", "setting": "[2]; MCF‐7, 48 h", "result": 44, "unit": "µM"},
      {"measurement": "decrease in cell viability", "setting": "[2]; MCF‐7, 24 h, 31.25 μM", "result": 32, "unit": "%"},
      {"measurement": "decrease in cell viability", "setting": "[2]; MCF‐7, 24 h, 62.5 μM", "result": 32, "unit": "%"},
      {"measurement": "decrease in cell viability", "setting": "[2]; MCF‐7, 24 h, 125 μM", "result": 48, "unit": "%"},
      {"measurement": "decrease in cell viability", "setting": "[2]; MCF‐7, 24 h, 250 μM", "result": 75, "unit": "%"},
      {"measurement": "decrease in cell viability", "setting": "[2]; MCF‐7, 24 h, 500 μM", "result": 92, "unit": "%"},
      {"measurement": "decrease in cell viability", "setting": "[2]; MCF‐7, 48 h, 31.25 μM", "result": 44, "unit": "%"},
      {"measurement": "decrease in cell viability", "setting": "[2]; MCF‐7, 48 h, 62.5 μM", "result": 60, "unit": "%"},
      {"measurement": "decrease in cell viability", "setting": "[2]; MCF‐7, 48 h, 125 μM", "result": 60, "unit": "%"},
      {"measurement": "decrease in cell viability", "setting": "[2]; MCF‐7, 48 h, 250 μM", "result": 60, "unit": "%"},
      {"measurement": "decrease in cell viability", "setting": "[2]; MCF‐7, 48 h, 500 μM", "result": 99, "unit": "%"},
      {"measurement": "decrease in cell viability", "setting": "[3]; A549, 24 h, 500 μM", "result": 20, "unit": "%"},
      {"measurement": "suppressive effect on cell proliferation / viability", "setting": "[3]; A549, 24 h", "result": "did not show any cytotoxic activity"},
      {"measurement": "cell suppressive effect", "setting": "[3]; A549, 24 h", "result": "no cell suppressive effect"},
      {"measurement": "decrease in cell viability", "setting": "[3]; A549, 48 h, 250 μM", "result": 8, "unit": "%"},
      {"measurement": "decrease in cell viability", "setting": "[3]; A549, 48 h, 500 μM", "result": 94, "unit": "%"},
      {"measurement": "IC50", "setting": "[3]; A549, 24 h", "result": "> 500", "unit": "µM"},
      {"measurement": "IC50", "setting": "[3]; A549, 48 h", "result": 373, "unit": "µM"}
    ]},
    {"smiles": "COc1ccc(/C=C(\\C#N)c2ccc(F)cc2)cc1", "note": "[2b]", "values": [
      {"measurement": "MIC", "setting": "[1]", "result": 25, "unit": "mg/mL"},
      {"measurement": "IC50", "setting": "[2]; MCF‐7, 24 h", "result": 363, "unit": "µM"},
      {"measurement": "IC50", "setting": "[2]; MCF‐7, 48 h", "result": 34, "unit": "µM"},
      {"measurement": "decrease in cell viability", "setting": "[2]; MCF‐7, 24 h, 31.25 μM", "result": 23, "unit": "%"},
      {"measurement": "decrease in cell viability", "setting": "[2]; MCF‐7, 24 h, 62.5 μM", "result": 26, "unit": "%"},
      {"measurement": "decrease in cell viability", "setting": "[2]; MCF‐7, 24 h, 125 μM", "result": 17, "unit": "%"},
      {"measurement": "decrease in cell viability", "setting": "[2]; MCF‐7, 24 h, 250 μM", "result": 23, "unit": "%"},
      {"measurement": "decrease in cell viability", "setting": "[2]; MCF‐7, 24 h, 500 μM", "result": 82, "unit": "%"},
      {"measurement": "decrease in cell viability", "setting": "[2]; MCF‐7, 48 h, 31.25 μM", "result": 49, "unit": "%"},
      {"measurement": "decrease in cell viability", "setting": "[2]; MCF‐7, 48 h, 62.5 μM", "result": 68, "unit": "%"},
      {"measurement": "decrease in cell viability", "setting": "[2]; MCF‐7, 48 h, 125 μM", "result": 71, "unit": "%"},
      {"measurement": "decrease in cell viability", "setting": "[2]; MCF‐7, 48 h, 250 μM", "result": 86, "unit": "%"},
      {"measurement": "decrease in cell viability", "setting": "[2]; MCF‐7, 48 h, 500 μM", "result": 91, "unit": "%"},
      {"measurement": "decrease in cell viability", "setting": "[3]; A549, 24 h, 500 μM", "result": 9, "unit": "%"},
      {"measurement": "cell suppressive effect", "setting": "[3]; A549, 24 h", "result": "no cell suppressive effect"},
      {"measurement": "decrease in cell viability", "setting": "[3]; A549, 48 h, 500 μM", "result": 71, "unit": "%"},
      {"measurement": "cell suppressive effect", "setting": "[3]; A549, 48 h", "result": "no cell suppressive effect"},
      {"measurement": "IC50", "setting": "[3]; A549, 24 h", "result": "> 500", "unit": "µM"},
      {"measurement": "IC50", "setting": "[3]; A549, 48 h", "result": 422, "unit": "µM"}
    ]},
    {"smiles": "COc1ccc(/C=C(\\C#N)c2cc(C(F)(F)F)cc(C(F)(F)F)c2)cc1", "note": "[2c]", "values": [
      {"measurement": "MIC", "setting": "[1]", "result": 25, "unit": "mg/mL"},
      {"measurement": "IC50", "setting": "[2]; MCF‐7, 24 h", "result": 409, "unit": "µM"},
      {"measurement": "IC50", "setting": "[2]; MCF‐7, 48 h", "result": 294, "unit": "µM"},
      {"measurement": "decrease in cell viability", "setting": "[2]; MCF‐7, 24 h, 31.25 μM", "result": 9, "unit": "%"},
      {"measurement": "decrease in cell viability", "setting": "[2]; MCF‐7, 24 h, 62.5 μM", "result": 10, "unit": "%"},
      {"measurement": "decrease in cell viability", "setting": "[2]; MCF‐7, 24 h, 125 μM", "result": 11, "unit": "%"},
      {"measurement": "decrease in cell viability", "setting": "[2]; MCF‐7, 24 h, 250 μM", "result": 17, "unit": "%"},
      {"measurement": "decrease in cell viability", "setting": "[2]; MCF‐7, 24 h, 500 μM", "result": 69, "unit": "%"},
      {"measurement": "decrease in cell viability", "setting": "[2]; MCF‐7, 48 h, 31.25 μM", "result": 25, "unit": "%"},
      {"measurement": "decrease in cell viability", "setting": "[2]; MCF‐7, 48 h, 62.5 μM", "result": 27, "unit": "%"},
      {"measurement": "decrease in cell viability", "setting": "[2]; MCF‐7, 48 h, 125 μM", "result": 26, "unit": "%"},
      {"measurement": "decrease in cell viability", "setting": "[2]; MCF‐7, 48 h, 250 μM", "result": 42, "unit": "%"},
      {"measurement": "decrease in cell viability", "setting": "[2]; MCF‐7, 48 h, 500 μM", "result": 85, "unit": "%"},
      {"measurement": "suppressive effect on cell proliferation / viability", "setting": "[3]; A549, 24 h", "result": "no suppressive effect"},
      {"measurement": "decrease in cell viability", "setting": "[3]; A549, 48 h, 500 μM", "result": 56, "unit": "%"},
      {"measurement": "IC50", "setting": "[3]; A549, 24 h", "result": "> 500", "unit": "µM"},
      {"measurement": "IC50", "setting": "[3]; A549, 48 h", "result": 473, "unit": "µM"}
    ]}
  ]
}
